Measured values reported in patent publication US20010056085A1, “Methods of using vesicant drug formulations” (priority 1996, published 2001).
Where two headings read alike, the source gives them in different places.

Assay: Half-life of ADR destruction by UVA light in the presence of test compounds (decrease in absorbance at 480 nm)
Type: physicochemical
Conditions: for Half-Life of ADR Destruction, 100 μM Test Compound: 100 μM test compound alone
[1] = UVA light, 100 μM test compound with 0.5 μM riboflavin

| Structure (SMILES) | Half-Life of ADR Destruction, 100 μM Test Compound (UVA light) [min] | Half-Life of ADR Destruction, 100 μM Test Compound and 0.5 μM Riboflavin [1] [min] | Half-Life of ADR Destruction, 100 μM Test Compound and 0.5 μM Riboflavin [min] |
| --- | --- | --- | --- |
| CC(=O)c1ccccc1 [Acetophenone] | 43.0 | 43.0 | – |
| CCCCCCc1ccc(N)cc1 [4-Hexyl Aniline] | – | 5.28 | – |
| CCC(C)c1ccccc1N (stereo not drawn) [2-sec-Butyl Aniline] | – | 10.4 | – |
| O=C(O)c1ccccc1-c1ccccc1 [2-Phenyl Benzoic Acid] | 43.0 | 43.0 | – |
| O=C(O)c1cccc(O)c1 [3-Hydroxy Benzoic Acid] | – | 23.2 | – |
| CCc1ccc(N)cc1 [4-Ethyl Aniline] | – | 10.4 | – |
| COc1ccc(CCC(=O)O)cc1 [3-(4-Methoxyphenyl) Propionic Acid] | 75.3 | 12.5 | – |
| Nc1cc(C(=O)O)ccc1O [3-Amino-4-Hydroxy Benzoic Acid] | – | 75.3 | – |
| COc1ccc(C(C)=O)cc1 [4′-Methoxyacetophenone] | – | 33.4 | – |
| O=c1c2ccccc2oc2ccccc12 [Xanthrone] | 5.47 | 6.84 | – |
| O=C(O)C(=O)Cc1c[nH]c2ccccc12 [Indole-3-pyruvic acid] | – | 6.74 | – |
| O=C(O)CSc1ccc2ccccc2c1 [2-(2-naphthylthio) Acetic acid] | 9.41 | 8.14 | – |
| CN(C)c1ccc(CN)cc1 [4-(Dimethylamino) Benzylamine] | – | 43.0 | – |
| O=C(O)c1ccc2c(c1)-c1ccccc1-2 [2-Biphenylene Carboxylic Acid] | – | 15.8 | – |
| NC(=O)c1ccccc1N [2-Aminobenzamide] | – | 33.5 | – |
| COc1ccc2[nH]cc(CCO)c2c1 [5-Methoxy-3-indoleethanol] | 33.5 | 9.12 | – |
| CC(=O)c1cccc(O)c1 [3′-Hydroxyacetophenone] | 75.3 | – | – |
| Nc1ncnc2c1ncn2[C@@H]1O[C@H](CO)[C@@H](O)[C@H]1O [Adenine-9-ribose (Adenosine), Adenine-9-ribose, reference compound] | 50.2 | 43.0 | – |
| COc1ccc2cc(C#N)ccc2c1 [6-Methoxynaphthalene-2-nitrile] | 23.2 | 20.1 | – |
| COc1ccc2[nH]cc(CC(=O)O)c2c1 [5-Methoxyindole-3-acetic acid] | 17.7 | 3.67 | – |
| Cn1cc(C[C@H](N)C(=O)O)c2ccccc21 [1-Methyl-tryptophan] | – | 9.71 | – |
| Nc1ccc(CC(=O)O)cc1 [4-Amino Phenylacetic acid] | 50.2 | 4.63 | – |
| OCCc1ccc(O)cc1 [4-Hydroxy Phenylethyl Alcohol] | – | 50.2 | – |
| O=C(O)Cc1ccsc1 [Thiophene-3-acetic acid] | 43.0 | 33.5 | – |

| Structure (SMILES) | Half-Life of ADR Destruction, 100 μM Test Compound (UVA light) [min] | Half-Life of ADR Destruction, 100 μM Test Compound and 0.5 μM Riboflavin [1] [min] | Half-Life of ADR Destruction, 100 μM Test Compound and 0.5 μM Riboflavin [min] |
| --- | --- | --- | --- |
| Cc1cc2cccc(C)c2[nH]1 [2,7-Dimethyl Indole] | – | 6.27 | – |
| CC(C(=O)O)c1ccccc1 (stereo not drawn) [α-Methyl-Phenylacetic Acid] | – | 50.2 | – |
| Cc1cccc2cc[nH]c12 [7-Methyl Indole] | – | 16.7 | – |
| O=C(O)c1cc2c(cc1C(=O)O)C(=O)c1ccccc1C2=O [Anthraquinone-2,3-dicarboxylic acid] | 1.57 | – | – |
| Cc1cc(C)cc(N)c1 [3,5-Dimethyl Aniline] | – | 100.4 ± 70.9 | – |
| O=S(=O)=C1C=CC=C(S(=O)(=O)O)C1 [3-Sulfonyl-benzenesulfonic acid] | – | 50.2 | – |
| Nc1ccccc1S(=O)(=O)O [2-Amino Benzenesulfonic acid] | – | 20.1 | – |
| O=C(O)Cc1c[nH]c2ccc(O)cc12 [5-Hydroxyindole-3-acetic acid] | – | 150.5 | – |
| O=C(O)c1cc(=O)c2ccccc2o1 [4-Chromone-2-carboxylic acid] | 15.8 | 14.3 | – |
| CCCc1ccccc1N [2-Propyl Aniline] | – | 9.41 | – |
| O=C(O)/C=C/c1ccccc1 [trans-Cinnamic Acid] | 43.0 | – | – |
| O=C1c2c(O)cccc2C([C@@H]2O[C@H](CO)[C@@H](O)[C@H](O)[C@H]2O)c2cc(CO)cc(O)c21 (stereo partly drawn) [Aloin] | 75.3 | 75.3 | – |
| O=C(c1ccc(C(=O)O)c(C(=O)O)c1)c1ccc(C(=O)O)c(C(=O)O)c1 [3,3′,4,4′-Benzophenone-tetracarboxylic acid] | 43.0 | – | – |
| Cc1cccc2[nH]ccc12 [4-Methyl Indole] | – | 18.7 ± 4.0 | – |
| NC(C(=O)O)c1ccc(O)cc1 (stereo not drawn) [4-Hydroxy Phenylglycine] | – | 24.2 ± 19.0 | – |
| COc1ccccc1C=CC=O [2-Methoxy Cinnamaldehyde] | – | 50.2 | – |
| CCCCCc1ccc(N)cc1 [4-Pentyl Aniline] | – | 4.12 | – |
| COc1ccccc1C(C)=O [2′-Methoxyacetophenone] | 25.1 | 21.5 | – |
| COc1ccc2ccccc2c1C(=O)O [2-Methoxynaphthalene-1-carboxylic acid] | 33.5 | 2.95 | – |
| O=C(O)CCc1c[nH]c2ccccc12 [Indole-3-propionic acid] | – | 9.5 ± 3.5 | – |
| O=C(O)c1ccc(-c2ccccc2)cc1 [4-Phenyl Benzoic Acid] | 43.0 | – | – |
| COc1ccc2c(C(=O)C(N)=O)c[nH]c2c1 [6-Methoxy-3-indoleglyoxylamide] | 75.3 | 30.1 | – |
| Nc1cccc(S(=O)(=O)c2cccc(N)c2)c1 [3,3′-Diamino Phenylsulfone] | – | – | 3.81 |
